{"source": "patent US20250213534A1", "about": "“5-METHOXY-N,N-[…][…] THE TREATMENT OF COGNITIVE DYSFUNCTION” (GH RESEARCH IRELAND LIMITED, priority 2022, published 2025)", "key": {"[1]": {"test_system": "Escherichia coli (WP2 uvrA pKM101)", "test": "Bacterial mutation test", "assay_type": "cell-based", "details": "up to 5000 μg/plate; absence and presence of rat liver S-9", "protocol": "(§1) These conditions included treatments at concentrations up to 5000 μg/plate (the maximum recommended concentration according to current regulatory guidelines), in the absence and in the presence of a rat liver metabolic activation system (S-9)."}, "[2]": {"test_system": "Salmonella typhimurium (TA98, TA100, TA1535 and TA1537)", "test": "Bacterial mutation test", "assay_type": "cell-based", "details": "up to 5000 μg/plate; absence and presence of rat liver S-9", "protocol": "as §1"}, "[3]": {"test": "Pharmacokinetics after single dose via inhalation (LC-MS/MS)", "assay_type": "in vivo, human", "details": "after 3 hours; whole dose range 6, 12, 18 mg"}, "[4]": {"test_system": "patients with postpartum depression (PPD)", "test": "Clinical trial of 5-MeO-DMT via inhalation (individualized dosing regimen) in postpartum depression", "details": "n=1", "protocol": "The single-arm, open-label clinical trial will involve 15 adult female patients with clinically diagnosed postpartum depression (PPD).\nThe second dose (12 mg) will only be administered if: • a. A peak experience (total score of ⋅75) has not been achieved following the 6 mg dose, and • b. The 6 mg dose was safe and well-tolerated according to the investigator, • c. Any psychoactive effects (PsE) of the prior dose have subsided, and • d. Pre-dose vital parameters and forced expiratory volume in one second (FEV1) are in normal range, or if outside of the normal range, are not clinically significant according to the investigator. • 3. Similarly, a third dose (18 mg) will only be administered if: • a. A peak experience (total score of ⋅75) has not been achieved following the 12 mg dose, and • b. The 12 mg dose was safe and well-tolerated according to the investigator, and • c. Any PsE of the prior dose have subsided, and • d. Pre-dose vital parameters and forced expiratory volume in one second (FEV1) are in normal range, or if outside of the normal range, are not clinically significant according to the investigator.\nThe patients will be assessed for a peak psychedelic experience (based on a patient-scored visual analogue scale, the PE scale), sedation, and other endpoints after dosing. Follow-up visits are planned for Day 1, and Day 7 after the dosing day.\nThe following criteria must be met by all patients considered for clinical trial participation: • 1. Is female and in the age range between 18 and 45 years (inclusive) at screening. • 2. Has a body mass index (BMI) in the range of 18.5 and 35 kg/m^2 (inclusive) at screening. • 3. Meets the trial criteria for PPD as assessed by a trial psychiatrist or registered psychologist: • a. Diagnosis of Major Depressive Disorder without psychotic features, confirmed by the Mini-International Neuropsychiatric Interview (MINI), with peri-partum onset that began no earlier than gestation and no later than the first 4 weeks postpartum. • b. Has a Montgomery-Åsberg Depression Rating Scale (MADRS) total score of equal to or greater than 28 at screening and pre-dose on Day 0. • 6. […] Patients must have a negative pregnancy test at screening and on the pre-test day (Day −1). • 5. Is willing to delay start of other antidepressant or anxiety medication until after the end of the trial at Day 7 and agrees to keep any psychotherapy unchanged during the trial."}}}
{"smiles": "COc1ccc2[nH]cc(CCN(C)C)c2c1", "note": "[5-MeO-DMT]", "values": [{"measurement": "Induction of mutation", "setting": "[1]", "value": "did not induce mutation"}, {"measurement": "Induction of mutation", "setting": "[2]", "value": "did not induce mutation"}, {"measurement": "Detectability in the plasma", "setting": "[3]", "value": "no longer detectable"}, {"measurement": "Inhalation-related adverse events", "setting": "[4]", "value": "no inhalation-related adverse events"}, {"measurement": "MADRS remission (MADRS total score equal or less than 10)", "setting": "[4]", "value": "fulfilled"}, {"measurement": "MADRS response (at least 50% improvement from baseline)", "setting": "[4]", "value": "fulfilled"}, {"measurement": "Reported adverse events (cramping left abdominal pain and headache, Day 0)", "setting": "[4]", "value": "mild, short-lasting and resolved spontaneously"}, {"measurement": "BIMF total score improvement", "setting": "[4]; Day 7, from 92 to 105", "value": 14, "unit": "%"}, {"measurement": "BIMF item 2 score: I feel rested", "setting": "[4]; Day 7, Day 0 0", "value": 2}, {"measurement": "BIMF item 19 score: As time goes on, I am getting better at taking care of my baby", "setting": "[4]; Day 7, Day 0 0", "value": 1}, {"measurement": "BIMF item 18 score: Anxiety or worry often interferes with my mothering ability", "setting": "[4]; Day 7, Day 0 2", "value": 5}, {"measurement": "BIMF item 16 score: I worry about how other people judge me (as a mother)", "setting": "[4]; Day 7, Day 0 3", "value": 5}, {"measurement": "BIMF item 13 score: I am taking good care of my physical needs (eating, showering, etc)", "setting": "[4]; Day 7, Day 0 4", "value": 5}, {"measurement": "BIMF item 4 score: My baby and I understand each other", "setting": "[4]; Day 7, Day 0 5", "value": 5}, {"measurement": "BIMF item 5 score: I am able to relax and enjoy time with my baby", "setting": "[4]; Day 7, Day 0 5", "value": 6}, {"measurement": "BIMF item 9 score: I am getting enough encouragement from other people", "setting": "[4]; Day 7, Day 0 5", "value": 6}, {"measurement": "BIMF item 10 score: I trust my own feelings (instincts) when it comes to taking care of my baby", "setting": "[4]; Day 7, Day 0 5", "value": 6}, {"measurement": "BIMF item 11 score: I take a little time each week to do something for myself", "setting": "[4]; Day 7, Day 0 5", "value": 6}, {"measurement": "BIMF item 15 score: My baby and I are getting into a routine", "setting": "[4]; Day 7, Day 0 5", "value": 6}, {"measurement": "BIMF item 17 score: I am able to take care of my baby and my other responsibilities", "setting": "[4]; Day 7, Day 0 5", "value": 5}, {"measurement": "BIMF item 1 score: I am a good mother", "setting": "[4]; Day 7, Day 0 6", "value": 6}, {"measurement": "BIMF item 3 score: I am comfortable with the way I've chosen to feed my baby (either bottle or breast, or both)", "setting": "[4]; Day 7, Day 0 6", "value": 6}, {"measurement": "BIMF item 6 score: There are people in my life that I can trust to care for my baby when I need a break", "setting": "[4]; Day 7, Day 0 6", "value": 6}, {"measurement": "BIMF item 8 score: I am getting enough adult interaction", "setting": "[4]; Day 7, Day 0 6", "value": 6}, {"measurement": "BIMF item 12 score: I am taking good care of my baby's physical needs (feedings, changing diapers, doctor's appointments)", "setting": "[4]; Day 7, Day 0 6", "value": 6}, {"measurement": "BIMF item 14 score: I make good decisions about my baby's health and well being", "setting": "[4]; Day 7, Day 0 6", "value": 6}, {"measurement": "BIMF item 20 score: I am satisfied with the job I am doing as a new mother", "setting": "[4]; Day 7, Day 0 6", "value": 5}, {"measurement": "BIMF item 1 Δ (Day 7)", "setting": "[4]; Day 7 vs Day 0", "value": 0}, {"measurement": "BIMF item 2 Δ (Day 7)", "setting": "[4]; Day 7 vs Day 0", "value": 2}, {"measurement": "BIMF item 3 Δ (Day 7)", "setting": "[4]; Day 7 vs Day 0", "value": 0}, {"measurement": "BIMF item 4 Δ (Day 7)", "setting": "[4]; Day 7 vs Day 0", "value": 0}, {"measurement": "BIMF item 5 Δ (Day 7)", "setting": "[4]; Day 7 vs Day 0", "value": 1}, {"measurement": "BIMF item 6 Δ (Day 7)", "setting": "[4]; Day 7 vs Day 0", "value": 0}, {"measurement": "BIMF item 7 Δ (Day 7)", "setting": "[4]; Day 7 vs Day 0", "value": 0}, {"measurement": "BIMF item 8 Δ (Day 7)", "setting": "[4]; Day 7 vs Day 0", "value": 0}, {"measurement": "BIMF item 9 Δ (Day 7)", "setting": "[4]; Day 7 vs Day 0", "value": 1}, {"measurement": "BIMF item 10 Δ (Day 7)", "setting": "[4]; Day 7 vs Day 0", "value": 1}, {"measurement": "BIMF item 11 Δ (Day 7)", "setting": "[4]; Day 7 vs Day 0", "value": 1}, {"measurement": "BIMF item 12 Δ (Day 7)", "setting": "[4]; Day 7 vs Day 0", "value": 0}, {"measurement": "BIMF item 13 Δ (Day 7)", "setting": "[4]; Day 7 vs Day 0", "value": 1}, {"measurement": "BIMF item 14 Δ (Day 7)", "setting": "[4]; Day 7 vs Day 0", "value": 0}, {"measurement": "BIMF item 15 Δ (Day 7)", "setting": "[4]; Day 7 vs Day 0", "value": 1}, {"measurement": "BIMF item 16 Δ (Day 7)", "setting": "[4]; Day 7 vs Day 0", "value": 2}, {"measurement": "BIMF item 17 Δ (Day 7)", "setting": "[4]; Day 7 vs Day 0", "value": 0}, {"measurement": "BIMF item 18 Δ (Day 7)", "setting": "[4]; Day 7 vs Day 0", "value": 3}, {"measurement": "BIMF item 19 Δ (Day 7)", "setting": "[4]; Day 7 vs Day 0", "value": 1}, {"measurement": "BIMF item 20 Δ (Day 7)", "setting": "[4]; Day 7 vs Day 0", "value": "−1"}, {"measurement": "Time to clinical remission after administration", "setting": "[4]; IDR 6 mg followed by 12 mg", "value": "≤ 2", "unit": "h"}]}
